Key:
Type in all cases: binding, mouse (Balb/c)
Conditions in all cases: for Cross-reactivity: (triasulfurone conc. for 50% inhibition/analog conc. for 50% inhibition) × 100
[1] = system: MAb 4134-40-1; assay: competitive ELISA, triasulfurone and analogs with MAb 4134-40-1 (Table 1)
From the text: (§1) As defined within the context of this invention, the percentage of cross-reactivity is represented by the following equation: [triasulfurone concentration for 50% inhibition (I50)/concentration of the triasulfurone analogs for 50% inhibition (I50)]×100.
(§2) The I50 value can be determined, for example, by means of a competitive ELISA assay (see Example 8). In that case the I50 value corresponds, for example, to the antigen concentration that leads to a 50% inhibition of the binding of the antibody to the carrier-bound antigen.
(§3) The detection of triasulfurone is effected by means of a two-step competitive ELISA test.
(§4) BSA-conjugated hapten, prepared in accordance with Example 1.3.1 or 1.3.2, in a 50mM sodium carbonate buffer (pH 9.6) (200 ng of BSA-conjugated hapten/100 μl of sodium carbonate buffer) is first of all adsorbed on microtitre plates (for example Dynatech, type M 129A) and incubated overnight at a temperature of 4° C. The plates are then washed five times with PBS buffer enriched with 0.1% (v/v) polysorbate 20 (Tween 20) (PBS Tween).
(§5) The remaining free binding sites of the solid carder material are then blocked by the addition of PBS-BSA in the form of a 1% (w/v) solution. After incubation for two hours at 22° C. the plates are washed again with PBS Tween (0.1%).
(§6) 50 μl of the supernatant of the previously cloned hybridoma cells (in a dilution of 1:2000 or 1:4000) or 50 μl of the previously purified monoclonal antibodies (40-120 ng/ml) are incubated a) with 950 μl of a standard solution containing an increasing amount of triasulfurone or of triasulfurone analogs, b) with triasulfurone-containing water samples or c) with triasulfurone-containing soil extracts. [All dilutions are carried out in PBS Tween (0.1%)].
(§7) After an incubation period of 1 hour at room temperature (22° C.), 200 μl of the antigen/antibody mixture are added to each well in the microtitre plate and the whole batch is incubated for a further one hour. The wells are then washed five times with PBS Tween (0.1%) and charged with 100 μl/well of goat anti-mouse IgG antibody that is conjugated to alkaline phosphatase (dilution 1:1500), and incubated for a period of 1.5 hours.
(§8) After washing again, 150 μl/well of the substrate p-nitrophenyl phosphate dissolved in 1 mg/ml of diethanolamine buffer ([…], pH 9.8, enriched with 0.5 mM MgCl2 ×6H2 O) are added to the wells.
(§9) The intensity of the colour reaction that has occurred is determined at a wavelength of 405 nm. […] All the samples are determined in triplicate.
(§10) In order to determine the amount of triasulfurone present in a sample, first of all a calibration curve is produced (FIG. 1), B/Bo×100 being plotted against the concentration of inhibitor. (Bo represents the absorption capacity measured without the addition of a triasulfurone inhibitor to the antibody, and B is the absorption capacity when triasulfurone inhibitors at various concentrations are added). The I50 value indicates the concentration of the antigen at which the binding of antibody to the solid phase is inhibited by 50%. The I50 value is determined using an ENZFITTER (Leatherbarrow, Elsevier-Biosoft) curve-calculation program based on a four-parameter logistical curve (Raab GM, 1983) and specially adapted to the prevailing conditions. The quantitative determination of triasulfurone in soil or water samples within the context of ELISA is also carried out using the ENZFITTER program, the adaptation of the curve being based on standards that run on any microtitre plate.

[2] = system: MAb 4147-19-4; assay: competitive ELISA, triasulfurone and analogs with MAb 4147-19-4 (Table 1)
From the text: as §1, §2, §3, §4, §5, §6, §7, §8, §9, §10

[3] = system: MAb 4149-1-1; assay: competitive ELISA, triasulfurone and analogs with MAb 4149-1-1 (Table 1)
From the text: as §1, §2, §3, §4, §5, §6, §7, §8, §9, §10

| SMILES | I50 (inhibitor concentration that reduces the ELISA signal by 50% in comparison to the control) [1] [ng/mL] | Cross-reactivity [1] [%] | I50 (inhibitor concentration that reduces the ELISA signal by 50% in comparison to the control) [2] [ng/mL] | Cross-reactivity [2] [%] | I50 (inhibitor concentration that reduces the ELISA signal by 50% in comparison to the control) [3] [ng/mL] | Cross-reactivity [3] [%] |
| --- | --- | --- | --- | --- | --- | --- |
| COc1nc(C)nc(NC(=O)NS(=O)(=O)c2cc(O)ccc2OCCCl)n1 [A] | 550 | 1.3 | 21.4 | 0.4 | 0.16 | 31.3 |
| COc1nc(C)nc(NC(=O)NS(=O)(=O)c2ccc(O)cc2OCCCl)n1 [B] | > 1000 | < 0.7 | 85 | 0.1 | 0.04 | 125.0 |
| NS(=O)(=O)c1ccccc1OCCCl [C] | > 1000 | < 0.7 | > 1000 | < 0.01 | 1000 | < 0.01 |
| NS(=O)(=O)c1ccccc1OCCO [D] | > 1000 | < 0.7 | > 1000 | < 0.01 | > 1000 | < 0.01 |
| NS(=O)(=O)c1cc(O)ccc1OCCCl [E] | > 1000 | < 0.7 | > 1000 | < 0.01 | > 1000 | < 0.01 |
| COc1nc(C)nc(NC(N)=O)n1 [F] | > 1000 | < 0.7 | > 1000 | < 0.01 | > 1000 | < 0.01 |
| COc1nc(C)nc(NC(=O)NS(=O)(=O)c2ccccc2SCCF)n1 [H] | 30 | 24.0 | 0.13 | 69.2 | 16.2 | 0.3 |
| COC(=O)c1ccccc1S(=O)(=O)NC(=O)Nc1nc(OC(F)F)cc(OC(F)F)n1 [I, primisulfurone] | > 1000 | < 0.7 | > 1000 | < 0.01 | > 1000 | < 0.01 |
| COC(=O)c1ccccc1S(=O)(=O)NC(=O)Nc1nc(C)cc(C)n1 [J, sulfometurone-methyl] | > 1000 | < 0.7 | > 1000 | < 0.01 | > 1000 | < 0.01 |
| COC(=O)c1ccccc1S(=O)(=O)NC(=O)N(C)c1nc(C)nc(OC)n1 [K, tribenurone-methyl] | > 1000 | < 0.7 | > 1000 | < 0.01 | > 1000 | < 0.01 |
